Measured values from ChEMBL document CHEMBL5131502, “Improving the treatment of Parkinson's disease: Structure-based development of novel 5-HT2A receptor antagonists/inverse agonists” (Eur J Med Chem, 2022).
pIC50: −log10 of the molar value. Calls of active or inactive are those of the source. The rule behind the calls is not given here.

What was measured:
[1] = target: T1, 5-hydroxytryptamine receptor 2A (Homo sapiens, UniProt P28223); test: Inverse agonist activity at 5-HT2A receptor (unknown origin) expressed in mouse NIH3T3 cells using o-nitrophenyl-D-galacto pyranoside incubated for 120 hrs; format: functional, cell-based
[2] = target: T1, 5-hydroxytryptamine receptor 2A; test: Potency index, ratio of pimavanserin IC50 to test compound IC50 for inverse agonist activity at 5-HT2A receptor (unknown origin) expressed in mouse NIH3T3 cells using o-nitrophenyl-D-galacto pyranoside incubated for 120 hrs; format: cell-based
[3] = target: T1, 5-hydroxytryptamine receptor 2A; test: Antagonist activity at 5-HT2A receptor (unknown origin) expressed in CHO-K1 cells assessed as reduction in intracellular Ca2+ mobilization incubated for 15 mins by FLIPR assay; format: functional, cell-based
[4] = target: T1, 5-hydroxytryptamine receptor 2A; test: Potency index, ratio of pimavanserin IC50 to test compound IC50 for antagonist activity at 5-HT2A receptor (unknown origin) expressed in CHO-K1 cells assessed as reduction in intracellular Ca2+ mobilization incubated for 15 mins by FLIPR assay; format: functional, cell-based
Rattus norvegicus [5] = test: Antiparkinson's activity in rat assessed as reduction in DOI-induced head-twitching at 1.5 to 6 micromol/kg, IG measured after 1 hr; format: functional, organism-based; conditions: dose 1.5-6 µmol/kg
[6] = Metabolic stability in human liver microsomes assessed as compound remaining at 100 uM […] followed by NADPH addition by LC/MS analysis; format: ADME, Microsome; conditions: read-out: Stability
[7] = Metabolic stability in human liver microsomes assessed as intrinsic clearance at 100 uM preincubated for 10 mins followed by NADPH addition by LC/MS analysis; format: ADME, Microsome; conditions: read-out: CLH
[8] = Metabolic stability in Sprague-Dawley rat liver microsomes assessed as half life at 100 uM preincubated for 10 mins followed by NADPH addition by LC/MS analysis; format: ADME, Microsome
[9] = Metabolic stability in Sprague-Dawley rat liver microsomes assessed as compound remaining at 100 uM […] followed by NADPH addition by LC/MS analysis; format: ADME, Microsome; conditions: read-out: Stability
[10] = Metabolic stability in human liver microsomes assessed as half life at 100 uM preincubated for 10 mins followed by NADPH addition by LC/MS analysis; format: ADME, Microsome
[11] = Metabolic stability in Sprague-Dawley rat liver microsomes assessed as intrinsic clearance at 100 uM preincubated for 10 mins followed by NADPH addition by LC/MS analysis; format: ADME, Microsome; conditions: read-out: CLH
Rattus norvegicus [12] = test: Antiparkinson's activity in rat assessed as reduction of DOI-induced head-twitching at 6 micromol/kg, IG measured after 1 hr; format: functional, organism-based; conditions: dose 6.0 µmol/kg
[13] = target: Voltage-gated inwardly rectifying potassium channel KCNH2 (Homo sapiens, UniProt Q12809); test: Inhibition of hERG potassium channel expressed in CHO cells at -80 mV holding potential by whole cell patch clamp assay; format: toxicity, cell-based
Voltage-gated inwardly rectifying potassium channel KCNH2, sequence (Q12809 whole entry): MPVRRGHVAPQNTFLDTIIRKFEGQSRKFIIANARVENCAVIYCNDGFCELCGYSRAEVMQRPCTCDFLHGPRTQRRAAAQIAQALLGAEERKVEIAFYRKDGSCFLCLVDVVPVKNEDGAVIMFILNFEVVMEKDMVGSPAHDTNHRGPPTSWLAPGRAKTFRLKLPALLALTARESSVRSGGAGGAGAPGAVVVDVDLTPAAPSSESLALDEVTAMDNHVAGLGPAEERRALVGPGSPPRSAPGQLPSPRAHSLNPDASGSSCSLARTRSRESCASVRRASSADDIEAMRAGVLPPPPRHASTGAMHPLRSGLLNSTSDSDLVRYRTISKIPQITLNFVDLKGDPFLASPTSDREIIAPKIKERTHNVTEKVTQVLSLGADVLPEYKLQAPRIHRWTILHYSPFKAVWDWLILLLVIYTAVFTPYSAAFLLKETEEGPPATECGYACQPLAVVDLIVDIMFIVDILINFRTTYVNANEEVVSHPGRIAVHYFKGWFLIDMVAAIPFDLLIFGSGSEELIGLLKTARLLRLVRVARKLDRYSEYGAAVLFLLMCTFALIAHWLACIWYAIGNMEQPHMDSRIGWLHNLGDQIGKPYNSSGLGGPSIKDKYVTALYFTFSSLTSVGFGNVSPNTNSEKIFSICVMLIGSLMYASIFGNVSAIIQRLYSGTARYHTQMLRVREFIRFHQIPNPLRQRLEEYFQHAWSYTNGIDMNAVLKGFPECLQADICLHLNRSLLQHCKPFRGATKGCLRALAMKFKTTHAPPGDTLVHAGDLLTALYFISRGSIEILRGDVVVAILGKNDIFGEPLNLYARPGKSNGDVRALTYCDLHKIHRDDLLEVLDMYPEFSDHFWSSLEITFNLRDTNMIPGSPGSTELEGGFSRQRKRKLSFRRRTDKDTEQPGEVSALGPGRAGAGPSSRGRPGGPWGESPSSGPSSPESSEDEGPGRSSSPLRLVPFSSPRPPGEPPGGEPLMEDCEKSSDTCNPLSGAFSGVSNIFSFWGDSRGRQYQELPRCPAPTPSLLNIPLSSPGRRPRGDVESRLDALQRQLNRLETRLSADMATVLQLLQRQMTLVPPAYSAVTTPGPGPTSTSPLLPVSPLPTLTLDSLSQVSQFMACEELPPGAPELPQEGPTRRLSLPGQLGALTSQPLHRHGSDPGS

T1 sequence (P28223 whole entry): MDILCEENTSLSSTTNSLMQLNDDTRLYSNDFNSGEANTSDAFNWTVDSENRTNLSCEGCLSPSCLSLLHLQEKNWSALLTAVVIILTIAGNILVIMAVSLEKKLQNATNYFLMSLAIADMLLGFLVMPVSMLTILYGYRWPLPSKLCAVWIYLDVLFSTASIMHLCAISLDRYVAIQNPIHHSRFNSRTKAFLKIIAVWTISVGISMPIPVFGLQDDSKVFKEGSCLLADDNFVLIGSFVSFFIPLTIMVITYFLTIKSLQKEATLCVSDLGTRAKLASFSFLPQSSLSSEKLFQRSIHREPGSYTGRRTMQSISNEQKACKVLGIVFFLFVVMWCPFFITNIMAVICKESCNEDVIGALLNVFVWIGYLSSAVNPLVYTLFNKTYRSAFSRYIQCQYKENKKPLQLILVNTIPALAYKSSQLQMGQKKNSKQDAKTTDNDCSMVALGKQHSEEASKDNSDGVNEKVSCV

SMILES: CC(C)COc1ccc(CNC(=O)N(Cc2ccc(F)nn2)C2CCN(C)CC2)cc1
- pIC50 [1]: < 6.30

SMILES: CC(C)COc1ccc(CNC(=O)N(Cc2cccc3sccc23)C2CCN(C)CC2)cc1
- Ratio IC50 [2]: > 10
- pIC50 [3]: < 6.30
- Ratio IC50 [4]: > 15
- pIC50 [1]: < 6.30

SMILES: CC(C)COc1ccc(CNC(=O)N(Cc2ccc(F)cc2)C2CCCC(N(C)C)C2)cc1 (centres undefined)
- pIC50 [3]: < 6.30
- pIC50 [1]: < 6.30

SMILES: CN1CCC(N(Cc2ccc(F)cn2)C(=O)NCc2ccc(OC(F)(F)C(F)(F)F)cc2)CC1
- pIC50 [3]: 7.48

SMILES: CC(C)COc1ccc(CNC(=O)N(Cc2ccc(F)cc2)C2CCC(N(C)C)C2)cc1 (centres undefined)
- pIC50 [3]: 6.96
- pIC50 [1]: 7.00

SMILES: CN1CCC(N(Cc2ccc(F)cn2)C(=O)NCc2ccc(OCC(F)(F)F)c(Cl)c2)CC1
- pIC50 [3]: 6.90
- pIC50 [1]: 6.87

SMILES: CN1CCC(N(Cc2ccc(F)cn2)C(=O)NCc2ccc(OCC(F)(F)F)cc2)CC1
- Activity (Rattus norvegicus [5]): Active

SMILES: CC(C)COc1ccc(CNC(=O)N(Cc2cccc3[nH]cnc23)C2CCN(C)CC2)cc1
- Ratio IC50 [2]: > 10
- pIC50 [3]: < 6.30
- Ratio IC50 [4]: > 15
- pIC50 [1]: < 6.30

SMILES: CN1CCC(N(Cc2ccc(F)cn2)C(=O)NCc2ccc(OCCCF)cc2)CC1
- pIC50 [3]: 8.71
- remaining at 100 µM [6]: 87.8%
- CLint scaled at 100 µM [7]: < 6.7 mL/min/kg
- half-life at 100 µM [8]: > 3.1 h
- pIC50 [1]: 8.52
- remaining at 100 µM [9]: 80.4%
- half-life at 100 µM [10]: > 3.1 h
- CLint scaled at 100 µM [11]: < 13.4 mL/min/kg

SMILES: CN1CCC(N(Cc2ccc(F)cn2)C(=O)NCc2ccc(CCC(F)(F)F)cc2)CC1
- pIC50 [3]: 7.74
- pIC50 [1]: 6.06

SMILES: CN1CCC(N(Cc2ccc(F)cn2)C(=O)NCc2ccc(OCC(F)(F)F)c(C(F)(F)F)c2)CC1
- pIC50 [3]: 7.56
- pIC50 [1]: 7.52

SMILES: CC(C)COc1ccc(CNC(=O)N(Cc2ccc(F)cc2)C2CCN(C)CC2)cc1
- Activity (Rattus norvegicus [12]): Active

SMILES: CN1CCC(N(Cc2ccc(F)cn2)C(=O)NCc2ccc(OCC(F)(F)F)c(Br)c2)CC1
- pIC50 [3]: 7.92
- pIC50 [1]: 8.05

SMILES: CC(C)COc1ccc(CNC(=O)N(Cc2cn[nH]c2)C2CCN(C)CC2)cc1
- pIC50 [3]: < 6.30
- pIC50 [1]: < 6.30

SMILES: CN1CCC(N(Cc2ccc(F)cn2)C(=O)NCc2ccc3c(c2)CC(C)(C)O3)CC1
- remaining at 100 µM [6]: 66.8%
- CLint scaled at 100 µM [7]: 11.9 mL/min/kg
- half-life at 100 µM [8]: 1.06 h
- pIC50 [13]: 5.44
- remaining at 100 µM [9]: 55%
- half-life at 100 µM [10]: 1.75 h
- CLint scaled at 100 µM [11]: 37.1 mL/min/kg

SMILES: CC(C)COc1ccc(CNC(=O)N(Cc2ccc(F)cc2)C2CCN(CCN(C)C)CC2)cc1
- pIC50 [3]: 7.12
- pIC50 [1]: < 6.30

SMILES: Cc1noc(C)c1CN(C(=O)NCc1ccc(OCC(C)C)cc1)C1CCN(C)CC1
- pIC50 [3]: < 6.30
- pIC50 [1]: < 6.30

SMILES: CC(C)COc1ccc(CNC(=O)N(Cc2ccc(F)cn2)C2CCN(C)CC2)cc1
- Ratio IC50 [2]: 2
- Ratio IC50 [4]: 3

SMILES: CN1CCC(N(Cc2ccc(F)cn2)C(=O)NCc2ccc3c(c2)CCC(C)(C)O3)CC1
- pIC50 [1]: 6.90

SMILES: CC(C)COc1ccc(CNC(=O)N(Cc2ccc(F)cc2)C2CC(N(C)C)C2)cc1 (centres undefined)
- pIC50 [3]: 6.86
- pIC50 [1]: 6.80

SMILES: CC(C)Cc1ccc(CNC(=O)N(Cc2ccc(F)cn2)C2CCN(C)CC2)cc1
- pIC50 [3]: 7.58
- pIC50 [1]: 8.08

SMILES: CC(C)CCc1ccc(CNC(=O)N(Cc2ccc(F)cn2)C2CCN(C)CC2)cc1
- pIC50 [3]: 7.17

SMILES: CC(C)COc1ccc(CNC(=O)N(Cc2ncc(F)cc2F)C2CCN(C)CC2)cc1
- pIC50 [3]: 7.36

SMILES: CC(C)COc1ccc(CNC(=O)N(Cc2ccc(F)nc2)C2CCN(C)CC2)cc1
- pIC50 [3]: < 6.30
- pIC50 [1]: < 6.30

SMILES: CC(C)COc1ccc(CNC(=O)N(Cc2ccc(F)cc2)C2CCN(CC(=O)N(C)C)CC2)cc1
- pIC50 [3]: 6.60
- pIC50 [1]: 7.06

SMILES: CC(C)c1cc2cc(CNC(=O)N(Cc3ccc(F)cn3)C3CCN(C)CC3)ccc2o1
- pIC50 [1]: 7.19
